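Assay format: 96-well plates, 48-hour exposure. At the GI50, growth is halved.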 The source made the active and inactive calls. Cut-off read from the data, not from the text of the source: active = GI50 up to about 1.1 µM and inactive = higher.
Assays:
Assay in all cases: growth of human tumour cells (NCI), 48 h
[1] = test system: NCI-H226
[2] = test system: SK-MEL-5
[3] = test system: M14
[4] = test system: 786-0
[5] = test system: SW-620
[6] = test system: UACC-62
[7] = test system: OVCAR-5
[8] = test system: IGROV-1
[9] = test system: HCT-15
[10] = test system: RPMI-8226
[11] = test system: COLO 205
[12] = test system: SF-295
[13] = test system: OVCAR-3
[14] = test system: UO-31
[15] = test system: SR

Row | SMILES | GI50 [1] | GI50 [2] | GI50 [3] | GI50 [4] | GI50 [5] | GI50 [6] | GI50 [7] | GI50 [8] | GI50 [9] [µM] | GI50 [10] | GI50 [11] | GI50 [12] | GI50 [13] | GI50 [14] | GI50 [15]
1 | CC(C)(C)C(=O)N1C(C(=O)O)Cc2ccccc2[C@@H]1Cc1ccccc1 (stereo partly specified) | 45.6 µM (inactive) | > 100 µM (inactive) | > 100 µM (inactive) | > 100 µM (inactive) | > 100 µM (inactive) | > 100 µM (inactive) | > 100 µM (inactive) | > 100 µM (inactive) | > 100 | > 100 µM (inactive) | > 100 µM (inactive) | > 100 µM (inactive) | > 100 µM (inactive) | – | –
2 | C/C(CC(=O)CCC(=O)Nc1cccc(C(F)(F)F)c1)=N\NC(=O)NN | > 100 µM (inactive) | > 100 µM (inactive) | > 100 µM (inactive) | > 100 µM (inactive) | > 100 µM (inactive) | > 100 µM (inactive) | > 100 µM (inactive) | > 100 µM (inactive) | > 100 | > 100 µM (inactive) | > 100 µM (inactive) | > 100 µM (inactive) | > 100 µM (inactive) | > 100 µM (inactive) | –
3 | O/N=C1/C(=C/c2ccc(Br)cc2)CCCC1C(NO)c1ccc(Br)cc1 (stereo unspecified) | – | – | 15.4 µM (inactive) | 16.8 µM (inactive) | 20.4 µM (inactive) | 13.9 µM (inactive) | 11.4 µM (inactive) | 17.1 µM (inactive) | 17.3 | 17.8 µM (inactive) | 15.3 µM (inactive) | 16.7 µM (inactive) | 17.4 µM (inactive) | 16 µM (inactive) | –
4 | NC1=NN(c2ccccc2)C(=O)C1C(=O)C(=O)Nc1cccc(C(F)(F)F)c1 (stereo unspecified) | > 100 µM (inactive) | > 100 µM (inactive) | > 100 µM (inactive) | > 100 µM (inactive) | > 100 µM (inactive) | > 100 µM (inactive) | > 100 µM (inactive) | > 100 µM (inactive) | > 100 | > 100 µM (inactive) | > 100 µM (inactive) | > 100 µM (inactive) | > 100 µM (inactive) | > 100 µM (inactive) | –
5 | Cc1nc(Nc2ccccc2)sc1C(=O)CC(=O)C(=O)Nc1c(C(C)C)cccc1C(C)C | > 100 µM (inactive) | > 100 µM (inactive) | > 100 µM (inactive) | > 100 µM (inactive) | > 100 µM (inactive) | 55.6 µM (inactive) | > 100 µM (inactive) | > 100 µM (inactive) | 98.9 | – | > 100 µM (inactive) | > 100 µM (inactive) | 97.9 µM (inactive) | 78.5 µM (inactive) | 20.6 µM (inactive)
6 | O=C(O[C@H]1[C@@H]2C=CO[C@@H](OC3OC(CO)C(O)C(O)C3O)[C@@H]2[C@@]2(CO)O[C@@H]12)c1ccc(O)c(O)c1 (stereo partly specified) | – | > 100 µM (inactive) | > 100 µM (inactive) | > 100 µM (inactive) | > 100 µM (inactive) | > 100 µM (inactive) | > 100 µM (inactive) | > 100 µM (inactive) | – | > 100 µM (inactive) | > 100 µM (inactive) | > 100 µM (inactive) | > 100 µM (inactive) | > 100 µM (inactive) | –
7 | CC(=O)NNc1nc(C)c(C(=O)/C=C/c2ccc(N(C)C)cc2)s1 | > 100 µM (inactive) | > 100 µM (inactive) | – | > 100 µM (inactive) | > 100 µM (inactive) | > 100 µM (inactive) | > 100 µM (inactive) | > 100 µM (inactive) | > 100 | > 100 µM (inactive) | > 100 µM (inactive) | > 100 µM (inactive) | > 100 µM (inactive) | > 100 µM (inactive) | –
8 | CCOc1ccc(NC(=O)C(=O)CC(=O)C2=C(C)Nc3ccccc3S2)cc1 | > 50 µM (inactive) | > 50 µM (inactive) | > 50 µM (inactive) | > 50 µM (inactive) | > 50 µM (inactive) | > 50 µM (inactive) | > 50 µM (inactive) | > 50 µM (inactive) | > 50 | > 50 µM (inactive) | > 50 µM (inactive) | > 50 µM (inactive) | > 50 µM (inactive) | > 50 µM (inactive) | –
9 | C#CC[N+](C)(CC#C)CC#C | – | > 100 µM (inactive) | > 100 µM (inactive) | > 100 µM (inactive) | > 100 µM (inactive) | > 100 µM (inactive) | > 100 µM (inactive) | > 100 µM (inactive) | > 100 | > 100 µM (inactive) | > 100 µM (inactive) | > 100 µM (inactive) | > 100 µM (inactive) | > 100 µM (inactive) | –
10 | Cc1ccc(C2=C(c3ccccc3)C(O)(c3ccc(C)cc3)C(c3ccccc3)=C2c2ccc(C)cc2)cc1 | – | > 100 µM (inactive) | 82 µM (inactive) | > 100 µM (inactive) | > 100 µM (inactive) | > 100 µM (inactive) | > 100 µM (inactive) | > 100 µM (inactive) | > 100 | 54.6 µM (inactive) | > 100 µM (inactive) | > 100 µM (inactive) | 69 µM (inactive) | – | –
